Results as given in US7534894B2, “Biphenyloxy-acids” (Wyeth, priority 2003, dated 2009).

Columns and labels:
[1] = target: T1, recombinant human plasminogen activator inhibitor-1 (PAI-1) (Homo sapiens, UniProt P05121); test: Primary Screen for the PAI-1 Inhibition (residual tPA activity, chromogenic substrate Spectrozyme-tPA); format: biochemical; details: 140 nM PAI-1, 70 nM tPA, pH 6.6; for inhibition at 25 µM: 25 μM test compound; for inhibition at 100 µM: 100 μM test compound
T1 construct: purchased Molecular Innovations, Royal Oak, Mich
Description: Test compounds are dissolved in DMSO at a final concentration of 10 mM, then diluted 101× in physiologic buffer. The inhibitory assay is initiated by the addition of the test compound (1-100 μM final concentration, maximum DMSO concentration of 0.2%) in a pH 6.6 buffer containing 140 nM recombinant human plasminogen activator inhibitor-1 (PAI-1; Molecular Innovations, Royal Oak, Mich.). Following a 1 hour incubation at room temperature, 70 nM of recombinant human tissue plasminogen activator (tPA) is added, and the combination of the test compound, PAI-1 and tPA is incubated for an additional 30 minutes. Following the second incubation, Spectrozyme-tPA (American Diagnostica, Greenwich, Conn.), a chromogenic substrate for tPA, is added and absorbance read at 405 nm at 0 and 60 minutes. Relative PAI-1 inhibition is equal to the residual tPA activity in the presence of the test compound and PAI-1. Control treatments include the complete inhibition of tPA by PAI-1 at the molar ratio employed (2:1), and the absence of any effect of the test compound on tPA alone.

human PAI-1 = human PAI-1 (Homo sapiens, UniProt P05121); test: Antibody Assay for Determining IC50 of Inhibition of PAI-1 (active PAI-1 bound to tPA-coated plate, 33B8 antibody); format: binding; details: test compound incubated with human PAI-1 50 ng/ml, pH 7.5
Description: This assay is based upon the non-SDS dissociable interaction between tPA and active PAI-1. Assay plates are initially coated with human tPA (10 μg/ml). Test compounds of the present invention are dissolved in DMSO at 10 mM, then diluted with physiologic buffer (pH 7.5) to a final concentration of 1-50 μM. Test compounds are incubated with human PAI-1 (50 ng/ml) for 15 minutes at room temperature. The tPA-coated plate is washed with a solution of 0.05% Tween 20 and 0. 1% BSA, then the plate is blocked with a solution of 3% BSA. An aliquot of the substituted biphenyloxy acid/PAI-1 solution is then added to the tPA-coated plate, incubated at room temperature for 1 hour, and washed. Active PAI-1 bound to the plate is assessed by adding an aliquot of a 1:1000 dilution of the 33B8 monoclonal antibody against human PAI-1, and incubating the plate at room temperature for 1 hour (Molecular Innovations, Royal Oak, Mich.). The plate is again washed, and a solution of goat anti-mouse IgG-alkaline phosphatase conjugate is added at a 1:50,000 dilution in goat serum. The plate is incubated 30 minutes at room temperature, washed, and a solution of alkaline phosphatase substrate is added. The plate is incubated 45 minutes at room temperature, and color development is determined at OD405nm. The quantitation of active PAI-1 bound to tPA at varying concentrations of the test compound is used-to determine the IC50. Results are analyzed using a logarithmic best-fit equation. The assay sensitivity is 5 ng/ml of human PAI-1 as determined from a standard curve ranging from 0-100 ng/ml.

human PAI-1, sequence (P05121 24-402): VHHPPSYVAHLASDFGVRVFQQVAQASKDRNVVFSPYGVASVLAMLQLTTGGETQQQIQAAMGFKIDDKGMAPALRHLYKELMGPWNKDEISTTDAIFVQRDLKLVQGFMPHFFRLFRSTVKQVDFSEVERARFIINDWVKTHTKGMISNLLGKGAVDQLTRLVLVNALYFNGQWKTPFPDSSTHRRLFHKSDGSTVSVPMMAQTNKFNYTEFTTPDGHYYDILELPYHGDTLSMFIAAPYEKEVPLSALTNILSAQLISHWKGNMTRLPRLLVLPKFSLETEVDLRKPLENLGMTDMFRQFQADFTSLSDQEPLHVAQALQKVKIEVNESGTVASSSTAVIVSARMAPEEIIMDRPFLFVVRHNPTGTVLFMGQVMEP
T1 sequence (P05121 24-402): as above

| inhibition at 25 µM [1] | inhibition at 100 µM [1] | melting point | IC50 (human PAI-1) | Compound |
| --- | --- | --- | --- | --- |
| 41% | 81% | 239 °C | 46.3 µM | CN(Cc1ccc(-c2ccc(OCc3nnn[nH]3)c(Br)c2)cc1)C(=O)c1cn(C)c2ccccc12 [Compound 9, N-{[3′-bromo-4′-(1H-tetraazol-5-ylmethoxy)-1,1′-biphenyl-4-yl]methyl}-N,1-dimethyl-1H-indole-3-carboxamide] |
| 64% | 100% | 72 to 78 °C | 18.7 µM | CCCCc1oc2ccccc2c1C(=O)N(C)Cc1ccc(-c2ccc(OCC(=O)O)c(Br)c2)cc1 [Compound 7, [(3-bromo-4′-{[[(2-butyl-1-benzofuran-3-yl)carbonyl](methyl)amino]methyl}-1,1′-biphenyl-4-yl)oxy]acetic acid] |
| 55% | 96% | 79 to 86 °C | 20 µM | CCCCc1oc2ccccc2c1C(=O)N(C)Cc1ccc(-c2ccc(OC(Cc3ccccc3)C(=O)O)c(Br)c2)cc1 (stereo not shown) [Compound 8, 2-[(3-bromo-4′-{[[(2-butyl-1-benzofuran-3-yl)carbonyl](methyl)amino]methyl}-1,1′-biphenyl-4-yl)oxy]-3-phenylpropanoic acid] |
| 47% | 88% | 204 to 206 °C | 37.5 µM | CCCc1c(C(=O)NCc2ccc(-c3ccc(OCC(=O)O)c(Br)c3)cc2)cnn1-c1ccccc1 [Compound 3, {[3-bromo-4′-({[(1-phenyl-5-propyl-1H-pyrazol-4-yl)carbonyl]amino}methyl)[1,1′-biphenyl]-4-yl]oxy}acetic acid] |
| 45% | 76% | – | 30 µM | CN(Cc1ccc(-c2ccc(OCc3nnn[nH]3)c(Br)c2)cc1)C(=O)c1cn(Cc2ccccc2)c2ccccc12 [Compound 10, 1-Benzyl-N-{[3′-bromo-4′-(1H-tetraazol-5-ylmethoxy)-1,1′-biphenyl-4-yl]methyl}-N-methyl-1H-indole-3-carboxamide] |
| 42% | 94% | – | 10.8 µM | CCCCc1oc2ccccc2c1C(=O)N(C)Cc1ccc(-c2ccc(OCc3nnn[nH]3)c(Br)c2)cc1 [Compound 6, N-{[3′-bromo-4′-(1H-tetraazol-5-ylmethoxy)-1,1′-biphenyl-4-yl]methyl}-2-butyl-N-methyl-1-benzofuran-3-carboxamide] |
